Tests used:
human hepatoma G2 cells = experiment: Cytotoxicity assay (XTT colorimetric), Hep G2; format: cell-based; settings: Homo sapiens, HepG2; 48 h of drug exposure
rat glioma C6 cells = experiment: Cytotoxicity assay (XTT colorimetric), C6 cells; format: cell-based; settings: Rattus norvegicus, C6; 48 h of drug exposure
[1] = tested on: transcriptional activity of hTERT; experiment: SEAP reporter assay of hTERT expression, PhTERT-SEAP (hTERT-BJ1); format: cell-based, human
Procedure, shortened: (§1)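 Read-out: rate of absorbance rise at 405 nm from p-nitrophenyl phosphate (12 mM final) hydrolysis by secreted alkaline phosphatase in heat-treated (65° C, 10 min) culture medium. Drugs at varying amounts were applied for 24 h after a 24 h pre-culture at 37° C.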

[2] = tested on: transcriptional activity of hTERT; experiment: SEAP reporter assay of hTERT expression, PhTERT-SEAP (H1299); format: cell-based, human
Procedure, shortened: as §1

[3] = MTT relative viability, PhTERT-SEAP (H1299) cells; settings: human
[4] = MTT relative viability, PhTERT-SEAP (hTERT-BJ1) cells; settings: human
[5] = tested on: iron-induced lipid peroxidation in rat brain homogenates; experiment: Iron-induced lipid peroxidation in rat brain homogenates; settings: 10 mM; mean percent inhibition (Table 3)
[6] = tested on: hepatitis B virus transfected hepatoma cell lines, HepG 2.2.15 cells; experiment: Cytotoxicity assay, 2.2.15 cells; format: cell-based, human; settings: Homo sapiens, HepG2.2.15; 48 h of drug exposure
[7] = hTERT-BJ1 cells, stable PhTERT-SEAP reporter clone

With `CCCC(=O)Oc1cccc2c1C(=O)c1cccc(OC(=O)CCC)c1C2=O` [IIIb, 1,5-Bis(butyryloxy)-anthraquinone] the IC50 (human hepatoma G2 cells) was 0.02 ± 0.01 µM, the IC50 (rat glioma C6 cells) was 38.5 ± 2.8 µM and the activity at 2.6 µM ([1]; Homo sapiens, 2.6 μM, hTERT-BJ1, read-out: Relative SEAP activity (%)) was 107 ± 11.9%. It also gave an activity at 26 µM ([1]; Homo sapiens, 26 μM, hTERT-BJ1, read-out: Relative SEAP activity (%)) of 119 ± 8.3%, an activity at 260 µM ([1]; Homo sapiens, 260 μM, hTERT-BJ1, read-out: Relative SEAP activity (%)) of 134 ± 3.8% and an activity at 2.6 µM ([2]; Homo sapiens, NCI-H1299, 2.6 μM, H1299, read-out: Relative SEAP activity (%)) of 114 ± 7.9%. It also gave an activity at 26 µM ([2]; Homo sapiens, NCI-H1299, 26 μM, H1299, read-out: Relative SEAP activity (%)) of 118 ± 8.4%, an activity at 260 µM ([2]; Homo sapiens, NCI-H1299, 260 μM, H1299, read-out: Relative SEAP activity (%)) of 111 ± 4.4% and a melting point of 211 to 213 °C. For the same molecule, the viability at 48 h, 2.6 µM [3] was 107 ± 5.6%, the viability at 48 h, 26 µM [3] was 106 ± 3.2% and the viability at 48 h, 260 µM [3] was 87 ± 6.5%. The viability at 48 h, 2.6 µM [4] was 109 ± 5.1%, the viability at 48 h, 26 µM [4] was 106 ± 5.6% and the viability at 48 h, 260 µM [4] was 85 ± 6.6%. The “Inhibition of LP(10 mM)” value [5] was 54 ± 2.2%.
`CCCCCC(=O)Oc1cccc2c1C(=O)c1cccc(OC(=O)CCCCC)c1C2=O` [IIIc, 1,5-Bis(hexanoyloxy)-anthraquinone] gave an IC50 (human hepatoma G2 cells) of 36.2 ± 2.5 µM, an IC50 (rat glioma C6 cells) of 39.1 ± 4.1 µM and an activity at 2.3 µM ([1]; Homo sapiens, 2.3 μM, hTERT-BJ1, read-out: Relative SEAP activity (%)) of 147 ± 18.8%. For the same molecule, the activity at 23 µM ([1]; Homo sapiens, 23 μM, hTERT-BJ1, read-out: Relative SEAP activity (%)) was 149 ± 16.1%, the activity at 230 µM ([1]; Homo sapiens, 230 μM, hTERT-BJ1, read-out: Relative SEAP activity (%)) was 124 ± 5.3% and the activity at 2.3 µM ([2]; Homo sapiens, NCI-H1299, 2.3 μM, H1299, read-out: Relative SEAP activity (%)) was 91 ± 9.9%. For the same molecule, the activity at 23 µM ([2]; Homo sapiens, NCI-H1299, 23 μM, H1299, read-out: Relative SEAP activity (%)) was 95 ± 17.4%, the activity at 230 µM ([2]; Homo sapiens, NCI-H1299, 230 μM, H1299, read-out: Relative SEAP activity (%)) was 95 ± 10.5% and the melting point was 183 to 184 °C. It also gave a viability at 48 h, 2.3 µM [3] of 117 ± 5.1%, a viability at 48 h, 23 µM [3] of 114 ± 4.7% and a viability at 48 h, 230 µM [3] of 106 ± 4.3%. It also gave a viability at 48 h, 2.3 µM [4] of 119 ± 9.4%, a viability at 48 h, 23 µM [4] of 98 ± 13.4% and a viability at 48 h, 230 µM [4, 7] of 62 ± 6.4%. The “Inhibition of LP(10 mM)” value [5] was −55 ± 1.5^ %.
For `O=C(Oc1cccc2c1C(=O)c1cccc(OC(=O)c3ccccc3)c1C2=O)c1ccccc1` [IIIe, 1,5-Bis(benzoyloxy)-anthraquinone], the IC50 (human hepatoma G2 cells) was 47.7 ± 5.5 µM, the IC50 (rat glioma C6 cells) was 38.7 ± 3.6 µM and the activity at 2.2 µM ([1]; Homo sapiens, 2.2 μM, hTERT-BJ1, read-out: Relative SEAP activity (%)) was 137 ± 10%. The activity at 22 µM ([1]; Homo sapiens, 22 μM, hTERT-BJ1, read-out: Relative SEAP activity (%)) was 122 ± 9.6%, the activity at 220 µM ([1]; Homo sapiens, 220 μM, hTERT-BJ1, read-out: Relative SEAP activity (%)) was 84 ± 21.7% and the activity at 2.2 µM ([2]; Homo sapiens, NCI-H1299, 2.2 μM, H1299, read-out: Relative SEAP activity (%)) was 88 ± 10%. It also gave an activity at 22 µM ([2]; Homo sapiens, NCI-H1299, 22 μM, H1299, read-out: Relative SEAP activity (%)) of 94 ± 8%, an activity at 220 µM ([2]; Homo sapiens, NCI-H1299, 220 μM, H1299, read-out: Relative SEAP activity (%)) of 86 ± 4.7% and a melting point of 336 to 338 °C. For the same molecule, the viability at 48 h, 2.2 µM [3] was 99 ± 7.3%, the viability at 48 h, 22 µM [3] was 60 ± 11.9% and the viability at 48 h, 220 µM [3] was 33 ± 4.7%. It also gave a viability at 48 h, 2.2 µM [4] of 103 ± 6.5%, a viability at 48 h, 22 µM [4] of 87 ± 9.8% and a viability at 48 h, 220 µM [4] of 51 ± 4.6%. The “Inhibition of LP(10 mM)” value [5] was −50 ± 1.9^ %.
`CCN(CC)CC(=O)Nc1ccc(NC(=O)CN(CC)CC)c2c1C(=O)c1ccccc1C2=O` [VI33, 1,4-Bis[2-(diethylamino)acetamido]-9,10-anthracenedione] showed an IC50 (human hepatoma G2 cells) of 0.65 µM, an IC50 (rat glioma C6 cells) of 4.46 µM and an IC50 [6] of 13 µM. For the same molecule, the SEAP/vibility ([1]; 2.1 μM, PhTERT-SEAP (hTERT-BJ1)) was 1.06, the SEAP/vibility ([1]; 21 μM, PhTERT-SEAP (hTERT-BJ1)) was 1.40 and the SEAP/vibility ([1]; 215 μM, PhTERT-SEAP (hTERT-BJ1)) was 2.61. The activity at 2.1 µM ([1]; Homo sapiens, 2.1 μM, PhTERT-SEAP (hTERT-BJ1), read-out: Relative SEAP activity (%)) was 111 ± 24.4%, the activity at 21 µM ([1]; Homo sapiens, 21 μM, PhTERT-SEAP (hTERT-BJ1), read-out: Relative SEAP activity (%)) was 120 ± 25.6% and the activity at 215 µM ([1]; Homo sapiens, 215 μM, PhTERT-SEAP (hTERT-BJ1), read-out: Relative SEAP activity (%)) was 83 ± 19%. The SEAP/vibility ([2]; 2.1 μM, PhTERT-SEAP(hTERT-H1299)) was 0.94, the SEAP/vibility ([2]; 21 μM, PhTERT-SEAP(hTERT-H1299)) was 0.99 and the SEAP/vibility ([2]; 215 μM, PhTERT-SEAP(hTERT-H1299)) was 1.11. The activity at 2.1 µM ([2]; Homo sapiens, NCI-H1299, 2.1 μM, PhTERT-SEAP(hTERT-H1299), read-out: Relative SEAP activity (%)) was 98 ± 3.3%, the activity at 21 µM ([2]; Homo sapiens, NCI-H1299, 21 μM, PhTERT-SEAP(hTERT-H1299), read-out: Relative SEAP activity (%)) was 86 ± 7.4% and the activity at 215 µM ([2]; Homo sapiens, NCI-H1299, 215 μM, PhTERT-SEAP(hTERT-H1299), read-out: Relative SEAP activity (%)) was 48 ± 2.3%. The melting point was 85 to 86 °C, the viability at 48 h, 2.1 µM [3] was 105 ± 4.9% and the viability at 48 h, 21 µM [3] was 87 ± 3.9%. For the same molecule, the viability at 48 h, 215 µM [3] was 44 ± 2.7%, the viability at 48 h, 2.1 µM [4, 7] was 105 ± 2.8% and the viability at 48 h, 21 µM [4, 7] was 86 ± 3.5%. The viability at 48 h, 215 µM [4, 7] was 32 ± 13.1%.
Molecule `CCN(CC)C(C)C(=O)Nc1ccc(NC(=O)C(C)N(CC)CC)c2c1C(=O)c1ccccc1C2=O` (centres unmarked) [VI35, 1,4-Bis[2-(diethylamino)propionamido]-9,10-anthracenedione] has an IC50 (human hepatoma G2 cells) of 2.02 µM, an IC50 (rat glioma C6 cells) of 18.1 µM and an IC50 [6] of 8.57 µM. It also gave an SEAP/vibility ([1]; 2.0 μM, PhTERT-SEAP (hTERT-BJ1)) of 0.41, an SEAP/vibility ([1]; 20 μM, PhTERT-SEAP (hTERT-BJ1)) of 0.94 and an SEAP/vibility ([1]; 203 μM, PhTERT-SEAP (hTERT-BJ1)) of 0.61. The activity at 2 µM ([1]; Homo sapiens, 2.0 μM, PhTERT-SEAP (hTERT-BJ1), read-out: Relative SEAP activity (%)) was 40 ± 14.5%, the activity at 20 µM ([1]; Homo sapiens, 20 μM, PhTERT-SEAP (hTERT-BJ1), read-out: Relative SEAP activity (%)) was 49 ± 9.3% and the activity at 203 µM ([1]; Homo sapiens, 203 μM, PhTERT-SEAP (hTERT-BJ1), read-out: Relative SEAP activity (%)) was 22 ± 6.6%. For the same molecule, the SEAP/vibility ([2]; 2.0 μM, PhTERT-SEAP(hTERT-H1299)) was 1.00, the SEAP/vibility ([2]; 20 μM, PhTERT-SEAP(hTERT-H1299)) was 1.35 and the SEAP/vibility ([2]; 203 μM, PhTERT-SEAP(hTERT-H1299)) was 0.98. It also gave an activity at 2 µM ([2]; Homo sapiens, NCI-H1299, 2.0 μM, PhTERT-SEAP(hTERT-H1299), read-out: Relative SEAP activity (%)) of 96 ± 14.3%, an activity at 20 µM ([2]; Homo sapiens, NCI-H1299, 20 μM, PhTERT-SEAP(hTERT-H1299), read-out: Relative SEAP activity (%)) of 104 ± 6% and an activity at 203 µM ([2]; Homo sapiens, NCI-H1299, 203 μM, PhTERT-SEAP(hTERT-H1299), read-out: Relative SEAP activity (%)) of 73 ± 11.7%. The melting point was 175 to 177 °C, the viability at 48 h, 2 µM [3] was 96 ± 7.9% and the viability at 48 h, 20 µM [3] was 77 ± 7.2%. For the same molecule, the viability at 48 h, 203 µM [3] was 75 ± 4.6%, the viability at 48 h, 2 µM [4, 7] was 97 ± 3.9% and the viability at 48 h, 20 µM [4, 7] was 52 ± 7.2%. For the same molecule, the viability at 48 h, 203 µM [4, 7] was 36 ± 5.8%.

From US20050009924A1 (priority 2003, published 2005)
